Data taken from patent US20260373101A1, “POLYAMINATED FATTY ACIDS FOR USE AS POTENTIATORS OF ANTIBACTERIAL ACTIVITY” (priority 2023, published 2026).
≈ marks a conversion by molar mass, not a printed value.

Legend:
Format in all cases: cell-based
[1] = test system: Chinese hamster ovary cells (CHO-K1); experiment: Toxicity on mammalian cells, WST1 assay; settings: Cricetulus griseus; CHO-K1 cell viability, WST1, 24 h
Description: The WST1 assay was used to measure the cytotoxic activity of the polyaminated fatty acid compounds. It is a colorimetric assay that measures viability and cell proliferation rate. It is based on the cleavage of colorless tetrazolium salts WST-1 (4-[3-(4-iodophenyl)-2-(4-nitrophenyl)-2H-5-tetrazolio]-1,3-benzene disulfonate) by mitochondrial dehydrogenases into yellow formazan derivative, quantifiable by spectrophotometry at 420-480 nm.
The WST1 assay was performed on Chinese hamster ovary cells. CHO-K1 cells (ATCC, USA) were maintained in culture in “Mac Coy's 5A” medium supplemented with 10% fetal calf serum, 2 mM L-glutamine and streptomycin penicillin mixture (100 U/ml: 10 μg/ml). Incubation is carried out at 37 °C under CO2 enriched atmosphere (5% by volume) and subcultured every two days.
Cells are transferred to 96-well plates (25,000 cells/ml) in complete “Mac Coy's 5A medium”, and maintained for 24 h at 37 °C under a humid CO2-enriched atmosphere (5% by volume). Increasing concentrations of given polyaminated fatty acid compounds are added to the wells in duplicate assays and 8 growth controls containing cells in medium alone are included in each assay run. After 24 hours at 37 °C (5% CO2), the culture medium is removed, the cells are rinsed in phosphate buffer (PBS) and 50 μL of PBS containing 10% WST1 reagent is added to each well. After 20 minutes of incubation at 37 °C, the results are read by spectrophotometry at 450 nm.
The results are expressed as dose-response relationships, modeled by a non-linear regression analysis using TableCurve software. The 50% Inhibitory Concentration (IC50) represents the concentration of polyaminated fatty acid compound capable of reducing cell viability by 50%.

[2] = test system: P. aeruginosa ATCC27853; experiment: Intrinsic antibacterial activity, standard microdilution (CLSI); settings: Pseudomonas aeruginosa; P. aeruginosa ATCC27853, compound alone, 24 h, 37 °C
Description: (§1) The bacterial strains used in the examples below are the reference strains P. aeruginosa ATCC27853, E. coli ATCC25922, K. pneumoniae ATCC51296, S. aureus ATCC25923 and E. faecalis ATCC29212. The bacterial strains were previously stored in 15% (v/v) glycerol at −80 °C for cryoprotection. One colony of the fresh culture of each strain was incubated in a culture tube containing 3 ml of Mueller-Hinton broth (MH2) at 37 °C overnight with agitation. This suspension was used for inoculum preparation.
(§2) The antibacterial activity of said polyaminated fatty acid compounds was measured using a standard microdilution test based on Clinical and Laboratory Standards Institute (CLSI) guidelines. This method was slightly modified by increasing the assay volumes to 200 μl so as to improve reproducibility.
(§3) A negative control which corresponds to 2 ml of sterile culture medium and a positive control which corresponds to a mixture of 1980 μl of culture medium and 20 μl of bacterial suspension from a thawed biological strain (biological strains are stored at −80 °C in glycerol) were prepared.
(§4) The tubes were incubated in an incubator shaker “Infors” at 37 °C for 24 hours at 100 round per minute (rpm).
(§5) The polyaminated fatty acid compounds to be tested were prepared in water at a concentration of 10 mM.
(§6) The required volume of the microbial suspension to be inoculated was calculated for an optical density (OD) measured corresponding to a value equal to 0.01 in each well by using a spectrophotometer at 600 nm. In the microplate, the first row corresponded to the negative control (200 μl of sterile culture medium in each well), the second row to the positive control (seeded culture medium), the third row was loaded twice with bacterial suspension and with 8 μl of a given polyaminated fatty acid compound in each well. Subsequently, a half-fold cascade dilution was performed from this line. The first column was used as an inhibition control. A sterile filter was then placed on the microplate allowing the passage of gases but not contaminants. The microplate was incubated at 37 °C in a humid atmosphere for 24 hours. After 24 hours of incubation, an optical density measurement was performed by taking 100 μl of the bacterial suspension diluted in 900 μl of sterile culture medium.
(§7) The medium used was Mueller-Hinton medium (MH) for bacteria. All tests were performed in duplicate.
(§8) Table 1 below reports the intrinsic antibacterial activity of some polymaminated fatty acids prepared in example 1 (MIC in μM) as well as their toxicity towards eucaryotic cells (IC50 in μM).

[3] = test system: E. faecalis ATCC29212; experiment: as above; settings: Enterococcus faecalis; E. faecalis ATCC29212, compound alone, 24 h, 37 °C
Description: as §1, §2, §3, §4, §5, §6, §7, §8

[4] = test system: S. aureus ATCC25923; experiment: as above; settings: Staphylococcus aureus; S. aureus ATCC25923, compound alone, 24 h, 37 °C
Description: as §1, §2, §3, §4, §5, §6, §7, §8

[5] = test system: E. coli ATCC28922; experiment: as above; settings: Escherichia coli, ATCC28922, 24 h
[6] = test system: P. aeruginosa ATCC27853; experiment: Antibacterial activity in combination with doxycycline; settings: Pseudomonas aeruginosa, 24 h
Description: (§9) 100 μl of a liquid culture medium is deposited in each well of a 96-well microplate, and then inoculated with the bacterial suspension of example 2.1 prepared for the positive control. The volume needed to inoculate is calculated for an OD of 0.01 which corresponds to approximately 5,106 bacteria in each well. In this plate, the first row corresponds to a negative control (200 μl of sterile culture medium in each well), the second row to a positive control (100 μl of sterile culture medium with 100 μl of the bacterial suspension), the third row contains 192 μl of culture medium and 8 μl of polyaminated fatty acid compound to be tested in each well. Subsequently, a cascade dilution is performed from this line. Next, 3-8 μl of a doxycycline solution (1 mg dissolved in 20 ml) is added to each well of the lines to obtain a final antibiotic concentration of 2 μg/ml. Then, 92 μl of bacterial suspension is added to lines 3 to 8. The MIC with a concentration of doxycycline of 2 μg/ml in the presence of X μg/ml of polyaminated fatty acid compound is determined after 24 hours of incubation at 37 °C in a humid atmosphere.
The table 2 below reports the antibacterial activity (MIC in μM) of a combination of some polyaminated fatty acids prepared in example 1 with two antibacterial drugs doxycycline and erythromycin. […] On the Gram-negative strain of E. coli ([…]), erythromycin has a MIC of 50 μg/ml.

[7] = test system: E. coli ATCC28922; experiment: Antibacterial activity in combination with erythromycin; settings: Escherichia coli, ATCC28922, 24 h
Description: as §9
The table 2 below reports the antibacterial activity (MIC in μM) of a combination of some polyaminated fatty acids prepared in example 1 with two antibacterial drugs doxycycline and erythromycin. […]

[8] = test system: P. aeruginosa PA0509; experiment: Potentiation of known antibiotics (MIC of antibiotic alone or with PAFA); settings: Pseudomonas aeruginosa, PA0509, 24 h
Description: (§10) 100 μl of a liquid culture medium is deposited in each well of a 96-well microplate, and then inoculated with the bacterial suspension of example 2.1 prepared for the positive control. The volume needed to inoculate is calculated for an OD of 0.01 which corresponds to approximately 5,106 bacteria in each well. In this plate, the first row corresponds to a negative control (200 μl of sterile culture medium in each well), the second row to a positive control (100 μl of sterile culture medium with 100 μl of the bacterial suspension), the third row contains 192 μl of culture medium and 8 μl of an antibiotic solution (10 mg/ml) to be tested in each well. Subsequently, a cascade dilution is performed from this line. Next, 10 μl of a fatty acid solution (10 μM final concentration) is added to each well of the lines. Then, 90 μl of bacterial suspension is added to lines 3 to 8. The MIC of the antibiotic tested is determined after 24 hours of incubation at 37 °C in a humid atmosphere.
(§11) The table 3 below reports the antibacterial activity (MIC in μg/mL) of a combination of some polyaminated fatty acids prepared in example 1 with various antibacterial drugs: doxycycline (DOX), tetracycline (TET), oxytetracycline (OXY) and minocycline (MINO), against various bacterial strains of P. aeruginosa (PA01, PA0509, and PA263), and of E. coli (AG-100 and AG-100A).

[9] = test system: P. aeruginosa PA263; experiment: as above; settings: Pseudomonas aeruginosa, PA263, 24 h, 24 h
Description: as §10, §11

[10] = test system: P. aeruginosa PA01; experiment: as above; settings: Pseudomonas aeruginosa, PA01, 24 h
Description: as §10, §11

[11] = test system: E. coli AG-100A; experiment: as above; settings: Escherichia coli, AG100A, 24 h
Description: as §10, §11

[12] = test system: E. coli AG-100; experiment: as above; settings: Escherichia coli, AG100, 24 h
Description: as §10, §11

[13] = P. aeruginosa ATCC27853 + Doxycycline (2 μg/ml)

CCCCC/C=C\C/C=C\CCCCCCCC(=O)NCCCNCCCN [PAFA11] was tested, and the IC50 [1] was 21 µM, the MIC [2] was 25 µM (≈ 9.84 µg/mL) and the MIC [3] was 12.5 µM (≈ 4.92 µg/mL). The MIC [4] was 12.5 µM (≈ 4.92 µg/mL), the MIC [5] was 100 µM (≈ 39.4 µg/mL) and the MIC [6, 13] was 12.5 µM.

With CC[C@H]1OC(=O)[C@H](C)[C@@H](O[C@H]2C[C@@](C)(OC)[C@@H](O)[C@H](C)O2)[C@H](C)[C@@H](O[C@@H]2O[C@H](C)C[C@H](N(C)C)[C@H]2O)[C@](C)(O)C[C@@H](C)C(=O)[C@H](C)[C@@H](O)[C@]1(C)O [erythromycin] the MIC [7] was 50 µg/mL.

CCCCC/C=C\C/C=C\CCCCCCCC(=O)NCCNCCNCCN [PAFA12] showed an IC50 [1] of 166 µM, an MIC [2] of 100 µM (≈ 40.9 µg/mL) and an MIC [3] of 100 µM (≈ 40.9 µg/mL). For the same compound, the MIC [4] was 200 µM (≈ 81.7 µg/mL), the MIC [5] was 50 µM (≈ 20.4 µg/mL) and the MIC [6, 13] was 50 µM.

With C[C@H]1c2cccc(O)c2C(=O)C2=C(O)[C@]3(O)C(=O)C(C(N)=O)=C(O)[C@@H](N(C)C)[C@@H]3[C@@H](O)[C@@H]21 [DOX, doxycycline] the MIC [8] was 1 µg/mL, the MIC ([8]; MIC of antibiotic, PA0509, +PAFA10 (10 μM), 24 h) was 0.25 µg/mL and the MIC ([8]; MIC of antibiotic, PA0509, +PAFA11 (10 μM), 24 h) was 0.25 µg/mL. It also gave an MIC ([8]; MIC of antibiotic, PA0509, +PAFA14 (10 μM), 24 h) of 0.125 µg/mL, an MIC ([9]; MIC of antibiotic, PA263, +PAFA10 (10 μM)) of 8 µg/mL and an MIC ([9]; MIC of antibiotic, PA263, +PAFA11 (10 μM)) of 4 µg/mL. The MIC ([9]; MIC of antibiotic, PA263, +PAFA14 (10 μM)) was 1 µg/mL, the MIC ([9]; PA263, Antibiotic alone) was 32 µg/mL and the MIC ([10]; MIC of antibiotic, PA01, +PAFA10 (10 μM)) was 2 µg/mL. For the same compound, the MIC ([10]; MIC of antibiotic, PA01, +PAFA11 (10 μM)) was 2 µg/mL, the MIC ([10]; MIC of antibiotic, PA01, +PAFA14 (10 μM)) was 0.125 µg/mL and the MIC ([10]; PA01, Antibiotic alone) was 32 µg/mL. The MIC ([11]; Antibiotic alone) was 0.5 µg/mL, the MIC ([11]; MIC of antibiotic, +PAFA10 (10 μM)) was 0.25 µg/mL and the MIC ([11]; MIC of antibiotic, +PAFA11 (10 μM)) was 0.25 µg/mL. The MIC ([11]; MIC of antibiotic, +PAFA14 (10 μM)) was 0.008 µg/mL, the MIC ([12]; AG-100, Antibiotic alone) was 1 µg/mL and the MIC ([12]; MIC of antibiotic, AG-100, +PAFA10 (10 μM)) was 0.25 µg/mL. It also gave an MIC ([12]; MIC of antibiotic, AG-100, +PAFA11 (10 μM)) of 0.25 µg/mL, an MIC ([12]; MIC of antibiotic, AG-100, +PAFA14 (10 μM)) of 0.008 µg/mL and an MIC ([6]; antibiotic alone, P. aeruginosa ATCC27853) of 32 µg/mL.

For CCCCC/C=C\C/C=C\CCCCCCCC(=O)NCCCN(C)CCCN [PAFA9], the IC50 [1] was 84 µM, the MIC [2] was 200 µM (≈ 81.5 µg/mL) and the MIC [3] was 50 µM (≈ 20.4 µg/mL). It also gave an MIC [4] of 50 µM (≈ 20.4 µg/mL), an MIC [5] of 25 µM (≈ 10.2 µg/mL) and an MIC [6, 13] of 25 µM.

CCCCC/C=C\C/C=C\CCCCCCCC(=O)NCCCN(CCCN)CCCN [PAFA10] showed an IC50 [1] of 79 µM, an MIC [2] of 25 µM (≈ 11.3 µg/mL) and an MIC [3] of 25 µM (≈ 11.3 µg/mL). For the same compound, the MIC [4] was 25 µM (≈ 11.3 µg/mL), the MIC [5] was greater than 200 µM and the MIC [6, 13] was 12.5 µM.

Compound CCCCC/C=C\C/C=C\CCCCCCCC(=O)NCCCCN [PAFA8] has an MIC [2] greater than 200 µM, an MIC [3] greater than 200 µM and an MIC [4] of 200 µM (≈ 70.1 µg/mL). The MIC [5] was greater than 200 µM.

CCCCC/C=C\C/C=C\CCCCCCCC(=O)NCCCNCCCCNCCCN [PAFA14] was tested, and the IC50 [1] was 98 µM, the MIC [2] was 100 µM (≈ 46.5 µg/mL) and the MIC [3] was 12.5 µM (≈ 5.81 µg/mL). It also gave an MIC [4] of 12.5 µM (≈ 5.81 µg/mL), an MIC [5] of 25 µM (≈ 11.6 µg/mL) and an MIC [6, 13] of 6.25 µM.
